Earlier results in paper PMC10379611 (International Journal of Molecular Sciences, 2023).

Settings: recommended clinical dose of Paxlovid; cited from earlier work

In the case of CC(C)c1nc(CN(C)C(=O)N[C@H](C(=O)N[C@@H](Cc2ccccc2)C[C@H](O)[C@H](Cc2ccccc2)NC(=O)OCc2cncs2)C(C)C)cs1 [Ritonavir], the observed plasma concentrations is listed as 0.5 µM.
